The values below come from patent publication EP1257261B1, “ANTIVIRAL PHARMACEUTICAL COMPOSITIONS CONTAINING IRON CHELATORS” (Faculteit Geneeskunde Universiteit Utrecht, priority 1999, dated 2001).

Like-named read-outs stand apart in the source and are kept apart here. Bounds are passed on as bounds.

Data set [1] has as its system HIV-1Ba-L. Description: HIV-1 replication in PBL, p24 ELISA of culture supernatant. The format is cell-based. From the text: (§1) Peripheral Blood Mononuclear Cell (PBMC) fractions were isolated from heparinized blood from HIV-1-, HIV-2- and hepatitis B-seronegative donors (Bloodbank, Utrecht, The Netherlands) by Ficoll-Isopaque gradient separation. Cells were washed twice and were then either subjected to counter-current centrifugal elutriation, or monocytes in the PBMC fraction were allowed to adhere to fibronectin-coated flasks before the PBL fraction was harvested. Monocytes were of >95% purity by criteria of cell morphology on May-Grunwald-Giemsa-stained cytosmears and by non-specific esterase staining using (α-naphthylacetate (Sigma Chemical Co., St. Louis, MO) and PBL >85% purity by May-Grunwald-Giemsa-staining. Viability of both cell types was >95% at the point of experiment initiation as determined by trypan-blue exclusion. Isolated monocytes were cultured in suspension at a concentration of 2 x 10^6 cells/ml in teflon flasks minimizing adherence (Nalgene, Rochester, NY) and allowed to differentiate for 7 days. MDM medium consisted of Dulbecco's modified Eagle's medium supplemented with 10% heat-inactivated human AB serum, negative for anti-HIV antibodies (Bloodbank Utrecht, NL), 10 µg/ml gentamycin (Life Technologies Ltd, Paisley, Scotland), 5 µg/ml ciprofloxacin (Beyer, Leverkusen, Germany), 0.6 mg/ml L-glutamine (Sigma) and 3.4 g/L bicarbonate (Merck, Darmstadt, Germany). Isolated PBL was stimulated to proliferate for 3 days with 4 µg/ml phytohemagglutinin (PHA; Sigma) in RPMI-1640 (Life Technologies Ltd.) medium supplemented with 10% heat inactivated fetal calf serum (Life Technologies Ltd.) and 10 µg/ml gentamycin. After PHA stimulation the PBL were cultured in medium containing 10 U/ml human recombinant IL-2 (Boehringer, Mannheim, Germany). All incubations were carried out in flat-bottomed 96-well plates at 37 °C, 5% CO2 and 95% air.
(§2) Cells were infected for 2 hours with HIV-1Ba-L. Macrophages were infected with a multiplicity of infection (MOI) of 0.005 and lymphocytes with an MOI of 0.001. The cells were then washed twice to remove excess virus and subsequently incubated with either DF (Novartis Pharma, Arnhem, The Netherlands), L1 (from Duchefa Farma B.V., Haarlem, The Netherlands) or BLM (H. Lundbeck A/S, Copenhagen, Denmark) for a period of 5 days. Virus in culture supernatant was inactivated in a final concentration of 0.05% empigen (Calbiochem-Novabiochem Co., La Jolla, CA). The presence of HIV-1 in the inactivated supernatant was monitored by checking for the p24-core antigen by enzyme-linked immunosorbent assay (ELISA).
For the HIV-1 replication measurements cells were infected for 2 hours with HIV-1Ba-L at an MOI of 0.001; the cells were subsequently washed 2 times and incubated with different DF concentrations. After 5 days, supenatant was harvested for p24 ELISA. Virus replication was expressed as % p24 reduction after DF incubations, compared to p24 measured from control HIV-infected cells incubated in the absence of DF (set at 100% p24). Cytotoxicity was measured by the MTT test and is represented as % viable cells after 5 days DF incubations, compared to viable cells from control HIV-infected cells incubated in the absence of DF (set at 100% viable cells). PBL proliferation was measured by overnight ^3H-thymidine incorporation after DF was incubated for 4 days with cells; it is represented as counts per minute (cpm) after DF incubations, compared to cpm from control cells, incubated in the absence of DF. Results are the average of 3 experiments in duplicate (statistical analysis using repeated ANOVA and student Newman-Keuls test, *p<0.05). 100% p24 production represents 19 ng p24/ml
For the HIV-I replication measurements cells were infected for 2 hours with HIV-1Ba-L at an MOI of 0.001; the cells were subsequently washed 2 times and incubated with different L1 concentrations. After 5 days, supernatant was harvested for p24 ELISA. […]

Data set [2] relates to HIV-1Ba-L. Nature of the data set: HIV-1 replication in MDM, p24 ELISA of culture supernatant. Format: cell-based. As to conditions: 5 days.
Excerpt: as §1, §2
(§3) For the HIV-1 replication measurements cells were infected for 2 hours with HIV-1Ba-L at an MOI of 0.001; the cells were subsequently washed 2 times and incubated with different compound concentrations. After 5 days supernatant was harvested for p24 ELISA; Virus replication was expressed as % p24 reduction after compound incubations, compared to p24 measured from control HIV-infected cells incubated in the absence of compounds (set at 100% p24). Cytotoxicity was measured by the MTT test and is represented as % viable cells after 5 days compound incubations, compared to viable cells from control HIV-infected cells incubated in the absence of compounds (set at 100% viable cells). Results are the average of 3 experiments in duplicate (statistical analysis using repeated ANOVA and student Newman-Keuls test, *p<0.05). 100% p24 production represents 1.2 ng p24/ml.

The next data set has as its system MDM. Description: Cytotoxicity in MDM, MTT assay. Format: cell-based, human. The note with it: 5 days. On the procedure:
(§4) Peripheral Blood Mononuclear Cell (PBMC) fractions were isolated from heparinized blood from HIV-1-, HIV-2- and hepatitis B-seronegative donors (Bloodbank, Utrecht, The Netherlands) by Ficoll-Isopaque gradient separation. Cells were washed twice and were then either subjected to counter-current centrifugal elutriation, or monocytes in the PBMC fraction were allowed to adhere to fibronectin-coated flasks before the PBL fraction was harvested. […] After PHA stimulation the PBL were cultured in medium containing 10 U/ml human recombinant IL-2 (Boehringer, Mannheim, Germany).
(§5) Possible cytotoxicity of DF, L1 or BLM was monitored by the MTT [3-(4,5 dimethylthiazol-2-yl)-2,5-diphenyltetrazolium bromide] (Sigma) assay.
as §3, with “*p<0.05).” for “*p<0.05). 100% p24 production represents 1.2 ng p24/ml.”

For data set [3], the system named is PBL. Nature of the data set: Lymphocyte proliferation, overnight 3H-thymidine incorporation. As to conditions: concentrations studied, 4 days incubation then overnight 3H-TdR. The format is cell-based, human.
Excerpt: as §1, with “Isolated PBL was stimulated to proliferate for 3 days with 4 µg/ml phytohemagglutinin (PHA; Sigma) in RPMI-1640 (Life Technologies Ltd.) medium supplemented with 10% heat inactivated fetal calf serum (Life Technologies Ltd.) and 10 µg/ml gentamycin. After PHA stimulation the PBL were cultured in medium containing 10 U/ml human recombinant IL-2 (Boehringer, Mannheim, Germany). All incubations were carried out in flat-bottomed 96-well plates at 37 °C, 5% CO2 and 95% air.” left out

Data set [4] has as its system PBL. Description: Cytotoxicity in PBL, MTT assay. The format is cell-based, human. The note with it: 5 days incubation. On the procedure:
as §4, §5
(§6) Results are the average of 3 experiments in duplicate (statistical analysis using repeated ANOVA and student Newman-Keuls test, *p<0.05).
as §6, §6

The subject of data set [5] is HIV-1Ba-L. Nature of the data set: Drug combination studies, p24 inhibition in HIV-infected PBL, median-effect / combination index (CalcuSyn). The format is cell-based. The note with it: 5 days; for IC50: Human immunodeficiency virus 1, 120 h, read-out: IC50 (p24-antigen inhibition).
Experimental: Three separate experiments were performed substantially as described in the section HIV infection and p24 measurements. Multiply-diluted fixed-ratio combinations of the drugs, or single drugs were added to each incubation point. The IC50 (inhibitory concentration) of each drug was calculated using the computer software program CalcuSyn. The combined-drug effect was evaluated by the median-effect principle and the isobologram method. This method involves the plotting of the dose-effect curve for each drug alone and in combination. The slope of the median-effect plot and the x intercept of the plot were then used for the computerized calculation of a combination index (CI). The CI values were based on the classic isobologram equation and CI values of <1, 1 and >1 indicate synergism (greater than the expected additive effect), additive effects and antagonism (less than the expected additive effect). Fraction affected (fa) was calculated for every drug combination and for each drug alone after p24 measurements in infected PBL incubated for 5 days with the examined compounds (see HIV infection and p24 measurements).
CT < 1, = 1 and > 1 represent synergistic, additive and antagonistic effects, respectively. The subdivision within the synergistic area (CI >0.7, 0.3-0.7 and <0.3 implying moderate synergism, synergism, and strong synergism respectively) is according to Chou and Talalay. The parameters are obtained using the median effect equation of Chou and Talalay and the CalcuSync computer software programme as described in materials and methods.
Peripheral blood lymphocytes (PBL) were infected for 2 hours with HIV-1Ba-L at an MOI of 0.001. The cells were subsequently washed 2 times to remove an excess in virus and subsequently incubated for 5 days with only BLM, only ritonavir or various combinations of the two substances. Virus in the supernatant of the cell cultures was inactivated in a final concentration of 0.05% empigen and the presence of HIV-1 in the inactivated supernatant was measured by determining the p24 antigen with enzyme-linked immunosorbent assay (ELISA). […]
The mark [6] stands for this setting: 300 ng BLM/ml, control 1.2 ng p24/ml.
The mark [7] stands for this setting: single drug within the BLM-ritonavir combination experiment.
Where [8] appears, read: single drug within the DF-ddI combination experiment.

As to bleomycin [BLM], the “reduction of HIV-1 replication (p24)” value with HIV-1Ba-L [1] (3-300 ng BLM/ml, 5 days, n=3, control 19 ng p24/ml) was 20-50%. Besides, the “p24 level in culture supernatant” value is on record as 15 ng p24/ml in the data set on HIV-1Ba-L [1] (lower end of 3-300 ng BLM/ml range (20% reduction), n=3, control 19 ng p24/ml); 9.5 ng p24/ml in the data set with HIV-1Ba-L [1] (upper end of 3-300 ng BLM/ml range (50% reduction), n=3, control 19 ng p24/ml); 0.6 ng p24/ml with HIV-1Ba-L [2] (setting [6]). Further, the “reduction of p24 levels” value with HIV-1Ba-L [2] (setting [6]) turned out to be 50%. In addition, the figures for the “cytotoxicity (cell viability, MTT)” value with MDM (concentrations studied) and in the data set with PBL [4] (concentrations studied) were “not to affect cell viability” and “not cytotoxic”, respectively. Also, the “cellular proliferation (3H-thymidine incorporation)” value in the data set with PBL [3] is listed as “remained intact”. In addition, the “IC50 (p24-antigen inhibition)” value in the data set on HIV-1Ba-L [5] (setting [7]) is 1.9 µg/mL.
Consider `Cc1c(O)c(=O)ccn1C` [L1, deferiprone], for which the “HIV-1 replication (p24)” value in the data set with HIV-1Ba-L [1] (100 µM, 5 days) is “reduced to minimal levels”. In the data set with HIV-1Ba-L [1] (lower compound concentrations (below 100 µM), 5 days), the p24 antigen production result is “subtle increase”. Also, in the data set on HIV-1Ba-L [2] (30 µM), the “up-regulation of p24 antigen production” value was “up to two fold”. For the same compound, the “cytotoxicity (cell viability, MTT)” value in the data set with MDM (concentrations studied) and in the data set on PBL [4] (100 µM) was “not cytotoxic” each time. In addition, the “cellular proliferation (3H-thymidine incorporation)” value with PBL [3] is reported as “decrease in proliferation”.
Regarding `CC(=O)N(O)CCCCCNC(=O)CCC(=O)N(O)CCCCCNC(=O)CCC(=O)N(O)CCCCCN` [DF, deferoxamine], the “p24 level in culture supernatant” value stood at 11 ng p24/ml in the data set on HIV-1Ba-L [1] (3 µM, 5 days, control 19 ng p24/ml); 1.9 ng p24/ml in the data set with HIV-1Ba-L [1] (30 µM, 5 days, n=3, control 19 ng p24/ml); 0.6 ng p24/ml with HIV-1Ba-L [2] (concentrations around 100 µM, control 1.2 ng p24/ml). Further, the inhibition at 3 µM in the data set with HIV-1Ba-L [1] (Human immunodeficiency virus 1, 120 h, 3 µM, 5 days incubation, n=3, p<0.05, control 19 ng p24/ml, read-out: reduction in viral replication (p24)) stood at 40%. Further, the inhibition at 30 µM with HIV-1Ba-L [1] (Human immunodeficiency virus 1, 120 h, 30 µM, 5 days, n=3, control 19 ng p24/ml, read-out: reduction of p24 levels) was > 90%. Further, the inhibition at 100 µM in the data set with HIV-1Ba-L [2] (Human immunodeficiency virus 1, 120 h, concentrations around 100 µM, control 1.2 ng p24/ml, read-out: reduction of viral replication (p24)) is ≤ 50%. Moreover, the entries for the “cytotoxicity (cell viability, MTT)” value in the data set with MDM (concentrations around 100 µM) and with PBL [4] (100 µM) were “onset of cytotoxicity” and “cytotoxic”, respectively. Moreover, the IC50 with HIV-1Ba-L [5] (setting [8]) was 8.5 µM.
Regarding `O=c1[nH]cnc2c1ncn2[C@H]1CC[C@@H](CO)O1` [ddI, dideoxyinosine], in the data set on HIV-1Ba-L [5] (setting [8]), the IC50 was 3.7 µM.
`CC(C)c1nc(CN(C)C(=O)N[C@H](C(=O)N[C@@H](Cc2ccccc2)C[C@H](O)[C@H](Cc2ccccc2)NC(=O)OCc2cncs2)C(C)C)cs1` [ritonavir]: the half-maximal inhibitory concentration (IC50) in the data set on HIV-1Ba-L [5] (setting [7]) is 0.04 µM.
